Measurements published in patent US20210380606A1, “5-AZAINDAZOLE DERIVATIVES AS ADENOSINE RECEPTOR ANTAGONISTS” (Merck Patent GmbH, priority 2018, published 2021).
Where two headings read alike, the source gives them in different places.

Legend:
human A2A receptors = molecular target: T1, human A2A receptors (Homo sapiens, UniProt P29274); experiment: Functional human A2A receptor activity, recombinant HEK293 cells, cAMP (HTRF); assay type: cell-based; settings: read-out: A2A (Category)
T1 construct: expressed in transfected cells; host or cells: HEK293
T1 sequence (P29274 whole entry): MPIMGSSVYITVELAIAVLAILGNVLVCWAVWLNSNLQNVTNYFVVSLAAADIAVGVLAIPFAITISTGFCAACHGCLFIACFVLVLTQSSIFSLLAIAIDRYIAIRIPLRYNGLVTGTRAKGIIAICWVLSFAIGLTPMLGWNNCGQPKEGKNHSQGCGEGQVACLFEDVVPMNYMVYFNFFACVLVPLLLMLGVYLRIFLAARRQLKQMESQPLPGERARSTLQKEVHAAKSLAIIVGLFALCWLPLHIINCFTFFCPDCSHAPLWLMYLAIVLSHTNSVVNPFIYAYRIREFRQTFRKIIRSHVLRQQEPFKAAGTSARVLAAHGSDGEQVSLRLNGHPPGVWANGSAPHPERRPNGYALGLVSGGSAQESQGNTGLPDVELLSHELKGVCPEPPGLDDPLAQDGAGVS
How it was run: (§1)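 Following a 15 min incubation, HTRF detection reagents are added and intracellular cAMP is quantified.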

human A2B receptors = molecular target: T2, human A2B receptors (Homo sapiens, UniProt P29275); experiment: Functional human A2B receptor activity, recombinant HEK293 cells, cAMP (HTRF); assay type: cell-based; settings: read-out: A2B (Category)
T2 construct: expressed in transfected cells; host or cells: HEK293
T2 sequence (P29275 1-332): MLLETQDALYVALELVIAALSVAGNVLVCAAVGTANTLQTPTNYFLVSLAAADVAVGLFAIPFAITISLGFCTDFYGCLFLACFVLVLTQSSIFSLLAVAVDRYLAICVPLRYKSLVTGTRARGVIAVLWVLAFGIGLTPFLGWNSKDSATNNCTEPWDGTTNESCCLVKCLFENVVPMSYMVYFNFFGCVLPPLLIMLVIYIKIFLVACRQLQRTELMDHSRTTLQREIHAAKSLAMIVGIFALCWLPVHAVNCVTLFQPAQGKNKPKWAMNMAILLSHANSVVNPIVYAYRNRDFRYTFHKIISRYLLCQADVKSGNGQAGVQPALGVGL
How it was run: as §1

[1] = recombinant HEK293 cells expressing human A2A receptor, agonist NECA, cAMP HTRF, 15 min incubation
[2] = recombinant HEK293 cells expressing human A2B receptor, agonist NECA, cAMP HTRF, 15 min incubation

Row | IC50 (human A2A receptors) | IC50 (human A2B receptors) | Compound | IC50 (human A2A receptors; [1]) | IC50 (human A2B receptors; [2])
1 | < 100 nM | < 1000 nM | O=C(c1cc2c(cn1)c(-c1cnc3c(F)cc(F)cn13)nn2CC(F)(F)F)N1CCCC(F)(F)C1 [Compound 159, [3-(6,8-Difluoro-imidazo[1,2-a]pyridin-3-yl)-1-(2,2,2-trifluoro-ethyl)-1H-pyrazolo[4,3-c]pyridin-6-yl]-(3,3-difluoro-piperidin-1-yl)-methanone] |  | 
2 | < 100 nM | < 1000 nM | CC1(O)C2CCC1CN(C(=O)c1cc3c(cn1)c(-c1cnc4c(F)cc(F)cn14)nn3CC(F)(F)F)C2 (stereo not drawn) [Compound 162, [3-(6,8-Difluoro-imidazo[1,2-a]pyridin-3-yl)-1-(2,2,2-trifluoro-ethyl)-1H-pyrazolo[4,3-c]pyridin-6-yl]-(8-endo-hydroxy-8-exo-methyl-3-aza-bicyclo[3.2.1]oct-3-yl)-methanone] |  | 
3 | < 100 nM | < 1000 nM | O=C(c1cc2c(cn1)c(-c1cnc3c(F)cc(F)cn13)nn2CC(F)(F)F)N1CCC2(CC1)COC2 [Compound 166, [3-(6,8-Difluoro-imidazo[1,2-a]pyridin-3-yl)-1-(2,2,2-trifluoro-ethyl)-1H-pyrazolo[4,3-c]pyridin-6-yl]-(2-oxa-7-aza-spiro[3.5]non-7-yl)-methanone] |  | 
4 | < 100 nM | < 1000 nM | CC1(C)CN(C(=O)c2cc3c(cn2)c(-c2cnc4c(F)cc(F)cn24)nn3CC(F)(F)F)CCCO1 [Compound 182, [3-(6,8-Difluoro-imidazo[1,2-a]pyridin-3-yl)-1-(2,2,2-trifluoro-ethyl)-1H-pyrazolo[4,3-c]pyridin-6-yl]-(2,2-dimethyl-1,4-oxazepan-4-yl)-methanone] |  | 
5 | < 100 nM | < 1000 nM | C[C@@H]1COC[C@H](C)N1C(=O)c1cc2c(cn1)c(-c1cnc3c(F)cc(F)cn13)nn2CC(F)(F)F [Compound 183, Cis-[3-(6,8-Difluoro-imidazo[1,2-a]pyridin-3-yl)-1-(2,2,2-trifluoro-ethyl)-1H-pyrazolo[4,3-c]pyridin-6-yl]-(3,5-dimethyl-morpholin-4-yl)-methanone] |  | 
6 | < 100 nM | < 1000 nM | O=C(c1cc2c(cn1)c(-c1cnc3c(F)cc(F)cn13)nn2CC(F)(F)F)N1CCOCC(F)(F)C1 [Compound 185, [3-(6,8-Difluoro-imidazo[1,2-a]pyridin-3-yl)-1-(2,2,2-trifluoro-ethyl)-1H-pyrazolo[4,3-c]pyridin-6-yl]-(6,6-difluoro-1,4-oxazepan-4-yl)-methanone] |  | 
7 | < 100 nM | < 1000 nM | O=C(c1cc2c(cn1)c(-c1cnc3c(F)cc(F)cn13)nn2CC(F)(F)F)N1CCCCCO1 [Compound 191, [3-(6,8-Difluoro-imidazo[1,2-a]pyridin-3-yl)-1-(2,2,2-trifluoro-ethyl)-1H-pyrazolo[4,3-c]pyridin-6-yl]-[1,2]oxazepan-2-yl-methanone] |  | 
8 | < 100 nM | < 1000 nM | O=C(c1cc2c(cn1)c(-c1cnc3c(F)cc(F)cn13)nn2CC(F)(F)F)N1CCOC2(CCC2)C1 [Compound 192, [3-(6,8-Difluoro-imidazo[1,2-a]pyridin-3-yl)-1-(2,2,2-trifluoro-ethyl)-1H-pyrazolo[4,3-c]pyridin-6-yl]-(5-oxa-8-aza-spiro[3.5]non-8-yl)-methanone] |  | 
9 | < 100 nM | < 1000 nM | O=C(c1cc2c(cn1)c(-c1cnc3c(F)cc(F)cn13)nn2CC(F)(F)F)N1CCOCC(O)C1 (stereo not shown) [Compound 193, [3-(6,8-Difluoro-imidazo[1,2-a]pyridin-3-yl)-1-(2,2,2-trifluoro-ethyl)-1H-pyrazolo[4,3-c]pyridin-6-yl]-(6-hydroxy-1,4-oxazepan-4-yl)-methanone] |  | 

The next lines start with the molecule.

Row | Compound | IC50 (human A2A receptors) | IC50 (human A2B receptors) | IC50 (human A2A receptors; [1]) | IC50 (human A2B receptors; [2])
10 | O=C(c1cc2c(cn1)c(-c1cnc3c(F)cc(F)cn13)nn2CC(F)(F)F)N1CC2COCC2C1 (stereo not shown) [Compound 154, [3-(6,8-Difluoro-imidazo[1,2-a]pyridin-3-yl)-1-(2,2,2-trifluoro-ethyl)-1H-pyrazolo[4,3-c]pyridin-6-yl]-(tetrahydro-furo[3,4-c]pyrrol-5-yl)-methanone] |  |  | < 100 nM | < 1000 nM
11 | O=C(c1cc2c(cn1)c(-c1cnc3c(F)cc(F)cn13)nn2CC(F)(F)F)N1CCCC(CO)C1 (stereo not shown) [Compound 161, [3-(6,8-Difluoro-imidazo[1,2-a]pyridin-3-yl)-1-(2,2,2-trifluoro-ethyl)-1H-pyrazolo[4,3-c]pyridin-6-yl]-(3-hydroxymethyl-piperidin-1-yl)-methanone] | < 100 nM | < 1000 nM |  | 
12 | O=C(c1cc2c(cn1)c(-c1cnc3c(F)cc(F)cn13)nn2CC(F)(F)F)N1CCC(CO)CC1 [Compound 165, [3-(6,8-Difluoro-imidazo[1,2-a]pyridin-3-yl)-1-(2,2,2-trifluoro-ethyl)-1H-pyrazolo[4,3-c]pyridin-6-yl]-(4-hydroxymethyl-piperidin-1-yl)-methanone] | < 100 nM | < 1000 nM |  | 
13 | O=C(c1cc2c(cn1)c(-c1cnc3c(F)cc(F)cn13)nn2CC(F)(F)F)N1[C@@H]2CC[C@H]1C[C@@H](O)C2 [Compound 168, [3-(6,8-Difluoro-imidazo[1,2-a]pyridin-3-yl)-1-(2,2,2-trifluoro-ethyl)-1H-pyrazolo[4,3-c]pyridin-6-yl]-(3-endo-hydroxy-8-aza-bicyclo[3.2.1]oct-8-yl)-methanone] | < 100 nM | < 100 nM |  | 
14 | O=C(c1cc2c(cn1)c(-c1cnc3c(F)cc(F)cn13)nn2CC(F)(F)F)N1CC2CC3CC(C2)CC1C3 [Compound 169, (4-Aza-tricyclo[4.3.1.1*3,8*]undec-4-yl)-[3-(6,8-difluoro-imidazo[1,2-a]pyridin-3-yl)-1-(2,2,2-trifluoro-ethyl)-1H-pyrazolo[4,3-c]pyridin-6-yl]-methanone] | < 100 nM | < 100 nM |  | 
15 | O=C(c1cc2c(cn1)c(-c1cnc3c(F)cc(F)cn13)nn2CC(F)(F)F)N1CC2CCC(C1)C2O (stereo not drawn) [Compound 170, [3-(6,8-Difluoro-imidazo[1,2-a]pyridin-3-yl)-1-(2,2,2-trifluoro-ethyl)-1H-pyrazolo[4,3-c]pyridin-6-yl]-(8-exo-hydroxy-3-aza-bicyclo[3.2.1]oct-3-yl)-methanone] | < 100 nM | < 1000 nM |  | 
16 | O=C(c1cc2c(cn1)c(-c1cnc3c(F)cc(F)cn13)nn2CC(F)(F)F)N1C2CCC1CC(O)C2 (stereo not drawn) [Compound 171, [3-(6,8-Difluoro-imidazo[1,2-a]pyridin-3-yl)-1-(2,2,2-trifluoro-ethyl)-1H-pyrazolo[4,3-c]pyridin-6-yl]-(3-exo-hydroxy-8-aza-bicyclo[3.2.1]oct-8-yl)-methanone] |  |  | < 100 nM | < 1000 nM
17 | O=C(c1cc2c(cn1)c(-c1cnc3c(F)cc(F)cn13)nn2CC(F)(F)F)N1C2CCCC1CC2 [Compound 172, (8-Aza-bicyclo[3.2.1]oct-8-yl)-[3-(6,8-difluoro-imidazo[1,2-a]pyridin-3-yl)-1-(2,2,2-trifluoro-ethyl)-1H-pyrazolo[4,3-c]pyridin-6-yl]-methanone] | < 100 nM | < 100 nM |  | 
18 | O=C(c1cc2c(cn1)c(-c1cnc3c(F)cc(F)cn13)nn2CC(F)(F)F)N1CCC(C(F)F)CC1 [Compound 173, [3-(6,8-Difluoro-imidazo[1,2-a]pyridin-3-yl)-1-(2,2,2-trifluoro-ethyl)-1H-pyrazolo[4,3-c]pyridin-6-yl]-(4-difluoromethyl-piperidin-1-yl)-methanone] | < 100 nM | < 1000 nM |  | 
19 | CC1(CO)CCN(C(=O)c2cc3c(cn2)c(-c2cnc4c(F)cc(F)cn24)nn3CC(F)(F)F)CC1 [Compound 176, [3-(6,8-Difluoro-imidazo[1,2-a]pyridin-3-yl)-1-(2,2,2-trifluoro-ethyl)-1H-pyrazolo[4,3-c]pyridin-6-yl]-(4-hydroxymethyl-4-methyl-piperidin-1-yl)-methanone] | < 100 nM | < 1000 nM |  | 
20 | O=C(c1cc2c(cn1)c(-c1cnc3c(F)cc(F)cn13)nn2CC(F)(F)F)N1CCCC(O)CC1 (stereo not shown) [Compound 177, [3-(6,8-Difluoro-imidazo[1,2-a]pyridin-3-yl)-1-(2,2,2-trifluoro-ethyl)-1H-pyrazolo[4,3-c]pyridin-6-yl]-(4-hydroxy-azepan-1-yl)-methanone] | < 100 nM | < 100 nM |  | 
21 | O=C(c1cc2c(cn1)c(-c1cnc3c(F)cc(F)cn13)nn2CC(F)(F)F)N1CCCS(=O)(=O)CC1 [Compound 180, [3-(6,8-Difluoro-imidazo[1,2-a]pyridin-3-yl)-1-(2,2,2-trifluoro-ethyl)-1H-pyrazolo[4,3-c]pyridin-6-yl]-1,4-thiazepan-1,1-dioxide-4-yl-methanone] | < 100 nM | < 1000 nM |  | 
22 | O=C(c1cc2c(cn1)c(-c1cnc3c(F)cc(F)cn13)nn2CC(F)(F)F)N1CC2CCC(C1)C2O (stereo not drawn) [Compound 187, [3-(6,8-Difluoro-imidazo[1,2-a]pyridin-3-yl)-1-(2,2,2-trifluoro-ethyl)-1H-pyrazolo[4,3-c]pyridin-6-yl]-(8-endo-hydroxy-3-aza-bicyclo[3.2.1]oct-3-yl)-methanone] |  |  | < 100 nM | < 1000 nM
23 | [2H]C1([2H])CCOCCN1C(=O)c1cc2c(cn1)c(-c1cnc3c(F)cc(F)cn13)nn2CC(F)(F)F [Compound 190, [3-(6,8-Difluoro-imidazo[1,2-a]pyridin-3-yl)-1-(2,2,2-trifluoro-ethyl)-1H-pyrazolo[4,3-c]pyridin-6-yl]-1,4-oxazepan-5,5-dideuterio-4-yl-methanone] | < 100 nM | < 100 nM |  | 
